The text below walks through data of patent publication US7576094B2, “Spiro derivatives as lipoxygenase inhibitors” (Eli Lilly and Company, priority 2004, dated 2009).

Experiment [1] has as its system LTB4 production in human whole blood. The experiment can be described thus: Inhibition of LTB4 Production in Blood. It counts as cell-based. The conditions noted are these: 1 h, 20 μM A23187, 60 minutes at 37° C., LTB4 in plasma by ELISA, read-out: protection against LTB4 at an EC50. The procedure, abridged:
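Citrated human whole blood preincubated 15 min at 37 °C with compound (top final 30 μM, 1:3 dilutions, quadruplicate), then stimulated with 20 μM A23187 for 60 min at 37 °C. Plasma LTB4 quantified by ELISA; IC50 from percent inhibition versus vehicle.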

Experiment [2] relates to release of the leukotriene LTB4 from a neutrophil cell line (MPRO cell line). Description: LTB4-Cell Assay. The conditions noted are these: Mus musculus, 1 h, read-out: inhibition of LTB4 with an EC50. It counts as cell-based. The essentials: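 Mouse promyelocytic cells differentiated to neutrophils with 10 μM all-trans retinoic acid for 72 h, then stimulated with 1 μM A23187 plus compound for 1 h at 37° C. Supernatant LTB4 quantified by competitive EIA; 5 concentrations in quadruplicate from 10 μM top.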

The structures appear in SMILES notation. pEC50: −log10 of the molar value.

On to `Cc1cc2c(c(C)c1O)CC1(CCC1)CO2` [5,7-dimethylspiro[chroman-3,1′-cyclobutan]-6-ol], for which the pEC50 was more than 5.00 in experiment [1] and more than 5.30 in experiment [2].
Regarding `CCO/N=C/C1=Cc2c(cc(C)c(O)c2C)OC12CCC2` [6-hydroxy-5,7-dimethylspiro[chromene-2,1′-cyclobutane]-3-carbaldehyde O-ethyloxime], the negative logarithm of the EC50 (pEC50) in experiment [1] was more than 5.00; in experiment [2] it was more than 5.30.
Turning to `CONC1CC2(CCC2)Sc2c(C)c(C)c(O)c(C)c21` (stereo not drawn) [4′-(methoxyamino)-5′,7′,8′-trimethyl-3′,4′-dihydrospiro[cyclobutane-1,2′-thiochromen]-6′-ol], the negative logarithm of the EC50 (pEC50) is more than 5.00 in experiment [1] and more than 5.30 in experiment [2].
With `CO/N=C1\CC2(CCC2)Sc2c(C)c(C)c(O)c(C)c21` [6′-hydroxy-5′,7′,8′-trimethylspiro[cyclobutane-1,2′-thiochroman]-4′(3′H)-one O-methyloxime], the pEC50 is more than 5.00 in experiment [1] and more than 5.30 in experiment [2].
On to `CCONCC1=Cc2c(cc(C)c(O)c2C)OC12CCC2` [3-[(ethoxyamino)methyl]-5,7-dimethylspiro[chromene-2,1′-cyclobutan]-6-ol], for which the values for the pEC50 in experiment [1] and in experiment [2] were more than 5.00 and more than 5.30, respectively.
For `COC(C)C1=Cc2c(C)c(O)c(C)c(C)c2OC12CCC2` (stereo not drawn) [3-(1-methoxyethyl)-5,7,8-trimethylspiro[chromene-2,1′-cyclobutan]-6-ol], the negative logarithm of the EC50 (pEC50) in experiment [1] is more than 5.00; in experiment [2] it was more than 5.30.
In the case of `CONC1CC2(CCC2)Sc2cc(C)c(O)c(C)c21` (stereo not drawn) [4′-(methoxyamino)-5′,7′-dimethyl-3′,4′-dihydrospiro[cyclobutane-1,2′-thiochromen]-6′-ol], the results for the pEC50 in experiment [1] and in experiment [2] were more than 5.00 and more than 5.30, respectively.
On the same counts, the results for `CCONC1CC2(CCC2)Sc2cc(C)c(O)c(C)c21` (stereo not drawn) [4′-(ethoxyamino)-5′,7′-dimethyl-3′,4′-dihydrospiro[cyclobutane-1,2′-thiochromen]-6′-ol] are more than 5.00 and more than 5.30.
In the case of `CCONC1CC2(CCC2)Sc2c(C)c(C)c(O)c(C)c21` (stereo not drawn) [4′-(ethoxyamino)-5′,7′,8′-trimethyl-3′,4′-dihydrospiro[cyclobutane-1,2′-thiochromen]-6′-ol], the pEC50 in experiment [1] was more than 5.00; in experiment [2] it was more than 5.30.
Consider `CC(C)(C)c1cc2c(cc1O)CCC1(CCC1)O2` [7-tert-butyl-3,4-dihydrospiro[chromene-2,1′-cyclobutan]-6-ol], for which the pEC50 in experiment [1] was more than 5.00; in experiment [2], more than 5.30.
As for `Cc1cc2c(c(C)c1O)C=CC1(CCC1)O2` [5,7-dimethylspiro[chromene-2,1′-cyclobutan]-6-ol], the pEC50 in experiment [1] was more than 5.00; in experiment [2], more than 5.30.
Regarding `Cc1c(O)cc2c(c1C)OC1(CCC1)CC2` [7,8-dimethyl-3,4-dihydrospiro[chromene-2,1′-cyclobutan]-6-ol], the figures for the pEC50 in experiment [1] and in experiment [2] were more than 5.00 and more than 5.30, respectively.
With `Cc1c(C)c2c(c(C)c1O)C1(CCC1)CCS2` [5′,7′,8′-trimethyl-2′,3′-dihydrospiro[cyclobutane, 1,4′-thiochromen]-6′-ol], the pEC50 in experiment [2] was more than 5.30.
Regarding `CCc1cc2c(c(CC)c1O)CC(CSCC(=O)OC)C1(CCC1)O2` (stereo not drawn) [methyl 2-((5,7-diethyl-6-hydroxyspiro[chroman-2,1′-cyclobutane]-3-yl)methylthio)acetate], the negative-log EC50 (pEC50) was more than 5.00 in experiment [1] and more than 5.30 in experiment [2].
Taken in the same sequence, the figures for `Cc1c(O)c(C(C)(C)C)cc2c1CCC1(CCC1)O2` [7-tert-butyl-5-methyl-3,4-dihydrospiro[chromene-2,1′-cyclobutan]-6-ol] were more than 5.00 and more than 5.30.
Taken in the same sequence, the figures for `Cc1c(C)c2c(c(C)c1O)CCC1(CC1)O2` [5,7,8-trimethyl-3,4-dihydrospiro[chromene-2,1′-cyclopropan]-6-ol] were more than 5.00 and more than 5.30.
As for `Cc1cc2c(c(C)c1O)CCC1(CCC1)O2` [5,7-dimethyl-3,4-dihydrospiro[chromene-2,1′-cyclobutan]-6-ol], the figures for the pEC50 in experiment [1] and in experiment [2] were more than 5.00 and more than 5.30, respectively.
On the same counts, the results for `Cc1c(C)c2c(c(C)c1O)C1(CCC1)CC(C)(C)S2` [2′,2′,5′,7′,8′-pentamethyl-2′,3′-dihydrospiro[cyclobutane-1,4′-thiochromen]-6′-ol] are more than 5.00 and more than 5.30.
As for `Cc1c(C)c2c(c(Cl)c1O)CCC1(CCC1)O2` [5-chloro-7,8-dimethyl-3,4-dihydrospiro[chromene-2,1′-cyclobutan]-6-ol], the pEC50 in experiment [2] is more than 5.30.
